{"source": "ChEMBL document CHEMBL1138478", "about": "“Application of a proteolysis/mass spectrometry method for investigating the effects of inhibitors on hydroxylase structure” (J Med Chem, 2009)", "assay": "Inhibition of human recombinant PHD2 (181-426) expressed in Escherichia coli BL21 (DE3) by TR-FRET assay", "note": "pIC50: −log10 of the molar value."}
{"smiles": "O=C(O)c1ccnc(C(=O)O)c1", "values": [{"measurement": "pIC50", "result": 5.72}]}
{"smiles": "O=C(O)/C=C/C(=O)O", "note": "[FUMARIC ACID]", "values": [{"measurement": "pIC50", "result": 4.72}]}
